{
  "source": "patent US6838019B2",
  "about": "“Phosphorescent material and electroluminescent device using thereof” (Ritek Corporation, priority 2001, dated 2005)",
  "test": "Solubility test in organic solvents",
  "assay_type": "physicochemical",
  "parameters": "key: X: not dissolved; ◯: partially dissolved; ⊚: completely dissolved",
  "conditions": "1 mg, room temperature (20 degrees Celsius); for Solubility in methylcyclohexane: methyl cyclohexane",
  "procedure": "1 mg of Tb(TMHD)3—DMSO, Tb(TMHD)3—MPSO, Tb(TMHD)3—DPSO, Tb(TMHD)3, Tb(TMHD)3—OPNP are each dissolved under room temperature (20 degrees Celsius) in the following organic solvent: dichlormethane, acetonitrile, toluene, ethyl acetate, hexane, methyl cyclohexane methanol, methy ethyl ketone ether.",
  "data": [
    {"compound": "CC(C)(C)C(=O)C=C([O-])C(C)(C)C.CC(C)(C)C(=O)C=C([O-])C(C)(C)C.CC(C)(C)C(=O)C=C([O-])C(C)(C)C.O=S(c1ccccc1)c1ccccc1.[Tb+3]", "note": "[Tb(TMHD)3-DPSO, tri(2,2,6,6-tetramethyl-3,5-heptanedionate) Tb(III) diphenyl sulfoxide]", "values": [
      {"measurement": "Solubility in acetonitrile", "result": "◯"},
      {"measurement": "Solubility in dichloromethane", "result": "⊚"},
      {"measurement": "Solubility in ether", "result": "⊚"},
      {"measurement": "Solubility in ethyl acetate", "result": "⊚"},
      {"measurement": "Solubility in hexane", "result": "⊚"},
      {"measurement": "Solubility in methanol", "result": "⊚"},
      {"measurement": "Solubility in methylcyclohexane", "result": "⊚"},
      {"measurement": "Solubility in methyl ethyl ketone", "result": "⊚"},
      {"measurement": "Solubility in toluene", "result": "⊚"}
    ]},
    {"compound": "CC(C)(C)C(=O)[CH-]C(=O)C(C)(C)C.CC(C)(C)C(=O)[CH-]C(=O)C(C)(C)C.CC(C)(C)C(=O)[CH-]C(=O)C(C)(C)C.[Tb+3]", "note": "[Tb(TMHD)3, tris(2,2,6,6-tetramethyl-3,5-heptanedionato) Terbium(III), reference compound]", "values": [
      {"measurement": "Solubility in acetonitrile", "result": "X"},
      {"measurement": "Solubility in dichloromethane", "result": "◯"},
      {"measurement": "Solubility in ether", "result": "◯"},
      {"measurement": "Solubility in ethyl acetate", "result": "X"},
      {"measurement": "Solubility in hexane", "result": "X"},
      {"measurement": "Solubility in methanol", "result": "X"},
      {"measurement": "Solubility in methylcyclohexane", "result": "X"},
      {"measurement": "Solubility in methyl ethyl ketone", "result": "X"},
      {"measurement": "Solubility in toluene", "result": "◯"}
    ]},
    {"compound": "Tris(2,2,6,6-tetramethyl-3,5-heptanedionato) Terbium (III) diphenyl phosphonimide tris-phenyl phosphorane [Tb(TMHD)3-OPNP, reference compound]", "values": [
      {"measurement": "Solubility in acetonitrile", "result": "◯"},
      {"measurement": "Solubility in dichloromethane", "result": "⊚"},
      {"measurement": "Solubility in ether", "result": "⊚"},
      {"measurement": "Solubility in ethyl acetate", "result": "⊚"},
      {"measurement": "Solubility in hexane", "result": "◯"},
      {"measurement": "Solubility in methanol", "result": "◯"},
      {"measurement": "Solubility in methylcyclohexane", "result": "◯"},
      {"measurement": "Solubility in methyl ethyl ketone", "result": "⊚"},
      {"measurement": "Solubility in toluene", "result": "⊚"}
    ]},
    {"compound": "CC(C)(C)C(=O)C=C([O-])C(C)(C)C.CC(C)(C)C(=O)C=C([O-])C(C)(C)C.CC(C)(C)C(=O)C=C([O-])C(C)(C)C.CS(=O)c1ccccc1.[Tb+3]", "note": "[Tb(TMHD)3-MPSO, tri(2,2,6,6-tetramethyl-3,5-heptanedionate) Tb(III) methyl phenyl sulfoxide]", "values": [
      {"measurement": "Solubility in acetonitrile", "result": "◯"},
      {"measurement": "Solubility in dichloromethane", "result": "⊚"},
      {"measurement": "Solubility in ether", "result": "⊚"},
      {"measurement": "Solubility in ethyl acetate", "result": "⊚"},
      {"measurement": "Solubility in hexane", "result": "⊚"},
      {"measurement": "Solubility in methanol", "result": "⊚"},
      {"measurement": "Solubility in methylcyclohexane", "result": "⊚"},
      {"measurement": "Solubility in methyl ethyl ketone", "result": "⊚"},
      {"measurement": "Solubility in toluene", "result": "⊚"}
    ]},
    {"compound": "CC(C)(C)C(=O)C=C([O-])C(C)(C)C.CC(C)(C)C(=O)C=C([O-])C(C)(C)C.CC(C)(C)C(=O)C=C([O-])C(C)(C)C.CS(C)=O.[Tb+3]", "note": "[Tb(TMHD)3-DMSO, tri(2,2,6,6-tetramethyl-3,5-heptanedionate) Tb(III) dimethyl sulfoxide]", "values": [
      {"measurement": "Solubility in acetonitrile", "result": "◯"},
      {"measurement": "Solubility in dichloromethane", "result": "⊚"},
      {"measurement": "Solubility in ether", "result": "⊚"},
      {"measurement": "Solubility in ethyl acetate", "result": "⊚"},
      {"measurement": "Solubility in hexane", "result": "⊚"},
      {"measurement": "Solubility in methanol", "result": "⊚"},
      {"measurement": "Solubility in methylcyclohexane", "result": "⊚"},
      {"measurement": "Solubility in methyl ethyl ketone", "result": "⊚"},
      {"measurement": "Solubility in toluene", "result": "⊚"}
    ]}
  ]
}
